Active and inactive are the calls of the source.

The results in this text go back to ChEMBL document CHEMBL4371039, “Synthesis and biological evaluation of novel analogues of Gly-l-Pro-l-Glu (GPE) as neuroprotective agents” (Bioorg Med Chem Lett, 2019).

Series [1] deals with THP-1. Nature of the series: Antiinflammatory activity in PMA-differentiated human THP1 cells assessed as reduction in IL-1beta expression at 10 uM preincubated for 4 hrs followed by PMA addition and measured after 20 hrs by Trizol reagent based RT-PCR analysis. In kind it is functional, cell-based.
In series [2] the test system is THP-1. Nature of the series: Antiinflammatory activity in PMA-differentiated human THP1 cells assessed as reduction in IL-18 expression at 10 uM preincubated for 4 hrs followed by PMA addition and measured after 20 hrs by Trizol reagent based RT-PCR analysis. In kind it is functional, cell-based.
For series [3], the system named is THP-1. Description: Antiinflammatory activity in PMA-differentiated human THP1 cells assessed as reduction in MCP1 expression at 10 uM preincubated for 4 hrs followed by PMA addition and measured after 20 hrs by Trizol reagent based RT-PCR analysis. In kind it is functional, cell-based.
In series [4] the test system is THP-1. Nature of the series: Antiinflammatory activity in PMA-differentiated human THP1 cells assessed as reduction in TNFalpha expression at 10 uM preincubated for 4 hrs followed by PMA addition and measured after 20 hrs by Trizol reagent based RT-PCR analysis. In kind it is functional, cell-based.
Series [5] deals with THP-1. Description: Immunostimulatory activity in PMA-differentiated human THP1 cells assessed as increase in IL-1beta expression at 10 uM preincubated for 4 hrs followed by PMA addition and measured after 20 hrs by Trizol reagent based RT-PCR analysis. In kind it is functional, cell-based.
Series [6] has as its system THP-1. Description: Immunostimulatory activity in PMA-differentiated human THP1 cells assessed as increase in IL-18 expression at 10 uM preincubated for 4 hrs followed by PMA addition and measured after 20 hrs by Trizol reagent based RT-PCR analysis. In kind it is functional, cell-based.
Series [7] relates to THP-1. Description: Immunostimulatory activity in PMA-differentiated human THP1 cells assessed as increase in MCP1 expression at 10 uM preincubated for 4 hrs followed by PMA addition and measured after 20 hrs by Trizol reagent based RT-PCR analysis. In kind it is functional, cell-based.
For series [8], the system named is THP-1. Description: Immunostimulatory activity in PMA-differentiated human THP1 cells assessed as increase in TNFalpha expression at 10 uM preincubated for 4 hrs followed by PMA addition and measured after 20 hrs by Trizol reagent based RT-PCR analysis. In kind it is functional, cell-based.
Series [9] relates to THP-1. Description: Antiinflammatory activity in human THP1 cells assessed as reduction in Abeta (25 to 35 residues)-induced TNFalpha expression at 10 uM preincubated for 2 hrs followed by Abeta (25 to 35 residues) addition and measured after 24 hrs by Trizol reagent based RT-PCR analysis. In kind it is functional, cell-based.
Series [10] deals with THP-1. Description: Antiinflammatory activity in human THP1 cells assessed as reduction in LPS-induced IL-1beta expression at 10 uM preincubated for 2 hrs followed by LPS addition and measured after 24 hrs by Trizol reagent based RT-PCR analysis. In kind it is functional, cell-based.
Series [11] relates to THP-1. Nature of the series: Antiinflammatory activity in human THP1 cells assessed as reduction in LPS-induced IL18 expression at 10 uM preincubated for 2 hrs followed by LPS addition and measured after 24 hrs by Trizol reagent based RT-PCR analysis. In kind it is functional, cell-based.
The subject of series [12] is THP-1. Description: Antiinflammatory activity in human THP1 cells assessed as reduction in Abeta (25 to 35 residues)-induced IL18 expression at 10 uM preincubated for 2 hrs followed by Abeta (25 to 35 residues) addition and measured after 24 hrs by Trizol reagent based RT-PCR analysis. In kind it is functional, cell-based.
The test system of series [13] is THP-1. Nature of the series: Antiinflammatory activity in human THP1 cells assessed as reduction in Abeta (25 to 35 residues)-induced MCP1 expression at 10 uM preincubated for 2 hrs followed by Abeta (25 to 35 residues) addition and measured after 24 hrs by Trizol reagent based RT-PCR analysis. In kind it is functional, cell-based.
Series [14] deals with THP-1. Nature of the series: Antiinflammatory activity in PMA-differentiated human THP1 cells assessed as reduction in INFgamma/LPS-induced IL-1beta expression at 10 uM preincubated for 2 hrs followed by INFgamma/LPS addition and measured after 6 hrs by Trizol reagent based RT-PCR analysis. In kind it is functional, cell-based.
The subject of series [15] is THP-1. Description: Antiinflammatory activity in PMA-differentiated human THP1 cells assessed as reduction in INFgamma/LPS-induced IL-8 expression at 10 uM preincubated for 2 hrs followed by INFgamma/LPS addition and measured after 6 hrs by Trizol reagent based RT-PCR analysis. In kind it is functional, cell-based.
Series [16] relates to THP-1. Nature of the series: Antiinflammatory activity in PMA-differentiated human THP1 cells assessed as reduction in IL4-induced IL-10 expression at 10 uM preincubated for 2 hrs followed by IL4 addition and measured after 6 hrs by Trizol reagent based RT-PCR analysis. In kind it is functional, cell-based.
Series [17] deals with THP-1. Description: Antiinflammatory activity in PMA-differentiated human THP1 cells assessed as reduction in IL4-induced CCL18 expression at 10 uM preincubated for 2 hrs followed by IL4 addition and measured after 6 hrs by Trizol reagent based RT-PCR analysis. In kind it is functional, cell-based.
The subject of series [18] is THP-1. Description: Antiinflammatory activity in PMA-differentiated human THP1 cells assessed as reduction in IL4-induced CCL22 expression at 10 uM preincubated for 2 hrs followed by IL4 addition and measured after 6 hrs by Trizol reagent based RT-PCR analysis. In kind it is functional, cell-based.
Series [19] is described as follows: Half life in human plasma. In kind it is ADME, cell-free.
Series [20] concerns THP-1. Nature of the series: Cytotoxicity against human THP1 cells assessed as effect on cell viability up to 400 uM measured after 6 to 48 hrs by MTT assay. In kind it is cell-based. On the technique in general: Tetrazolium dyes change colour on reduction, which living cells bring about.
For series [21], the system named is THP-1. Nature of the series: Neuroprotective activity against Abeta (25 to 35 residues)-induced cell death in human THP1 cells assessed as cell survival at 10 uM preincubated for 2 hrs followed by Abeta (25 to 35 residues) addition and measured after 24 hrs by MTT assay (reference value: 40%). In kind it is functional. The following applies: read-out: Survival.

The nature of series [22]: Solubility of the compound in water. In kind it is physicochemical. The conditions noted are these: buffer.
For series [23], the system named is THP-1. Nature of the series: Neuroprotective activity against H2O2-induced cell death in human THP1 cells assessed as cell survival at 10 uM preincubated for 2 hrs followed by H2O2 addition and measured after 24 hrs by MTT assay (reference value: 43%). In kind it is functional. The conditions noted are these: read-out: Survival.
The test system of series [24] is THP-1. Description: Antiinflammatory activity in human THP1 cells assessed as reduction in LPS-induced TNFalpha expression at 10 uM preincubated for 2 hrs followed by LPS addition and measured after 24 hrs by Trizol reagent based RT-PCR analysis. In kind it is functional, cell-based.
Series [25] has as its system THP-1. Description: Antiinflammatory activity in human THP1 cells assessed as reduction in Abeta (25 to 35 residues)-induced IL-1beta expression at 10 uM preincubated for 2 hrs followed by Abeta (25 to 35 residues) addition and measured after 24 hrs by Trizol reagent based RT-PCR analysis. In kind it is functional, cell-based.
The test system of series [26] is THP-1. Nature of the series: Antiinflammatory activity in PMA-differentiated human THP1 cells assessed as reduction in LPS-induced IL-1beta expression at 10 uM preincubated for 2 hrs followed by LPS addition and measured after 24 hrs by Trizol reagent based RT-PCR analysis. In kind it is functional, cell-based.
The subject of series [27] is THP-1. Description: Antiinflammatory activity in PMA-differentiated human THP1 cells assessed as reduction in LPS-induced IL18 expression at 10 uM preincubated for 2 hrs followed by LPS addition and measured after 24 hrs by Trizol reagent based RT-PCR analysis. In kind it is functional, cell-based.
Series [28] has as its system THP-1. Nature of the series: Immunostimulatory activity in PMA-differentiated human THP1 cells assessed as increase in LPS-induced IL-4 expression at 10 uM preincubated for 2 hrs followed by LPS addition and measured after 24 hrs by Trizol reagent based RT-PCR analysis. In kind it is functional, cell-based.
Series [29] relates to THP-1. Nature of the series: Immunostimulatory activity in PMA-differentiated human THP1 cells assessed as increase in LPS-induced IL-10 expression at 10 uM preincubated for 2 hrs followed by LPS addition and measured after 24 hrs by Trizol reagent based RT-PCR analysis. In kind it is functional, cell-based.

`NCCN1CCC[C@H]1C(=O)N[C@@H](CCC(=O)O)C(=O)O`: the result with THP-1 [1], in the series with THP-1 [2], in the series on THP-1 [3], in the series on THP-1 [4], in the series on THP-1 [5] and in the series on THP-1 [6] was Active. Further, the outcome in the series with THP-1 [7], in the series with THP-1 [8], in the series with THP-1 [9], with THP-1 [10], with THP-1 [13] and with THP-1 [14] was Active. Moreover, the outcome with THP-1 [15] was Active. In addition, the result with THP-1 [11], with THP-1 [12], in the series on THP-1 [16], in the series with THP-1 [17] and in the series on THP-1 [18] was inactive.

As usually defined, the half-life is the time needed for the level to fall by half in the phase considered. In series [19], `NCCN1CCC[C@H]1C(=O)N[C@@H](CCC(=O)O)C(=O)O.O=C(O)C(F)(F)F` had a half-life of 6.6 h. For the same compound, the Activity entry in the series with THP-1 [20] was “Non-Toxic”. Moreover, the viability at 10 µM in the series with THP-1 [21] was found to be 76%. The solubility entry in series [22] was “Soluble”.

Take `NCC(=O)N1CCC[C@H]1C(=O)N[C@@H](CCC(=O)O)C(=O)O.O=C(O)C(F)(F)F.O=C(O)C(F)(F)F`: the half-life in series [19] is 4.5 h. In the series with THP-1 [20], the Activity result was “Non-Toxic”. In the series on THP-1 [23], the viability at 10 µM came to 100%. Also, the result in the series with THP-1 [1], in the series on THP-1 [2], in the series with THP-1 [3], with THP-1 [4], in the series on THP-1 [24] and in the series on THP-1 [10] was Active. Also, the result in the series with THP-1 [25], in the series with THP-1 [26], in the series on THP-1 [27], in the series on THP-1 [28] and in the series on THP-1 [29] was Active. In addition, the result with THP-1 [9], in the series on THP-1 [11] and in the series with THP-1 [12] was inactive. Also, the solubility result in series [22] is listed as “Soluble”.

Compound `NCCN1CCC[C@H]1C(=O)N[C@@H](CCC(=O)O)C(=O)O.O=C(O)C(F)(F)F.O=C(O)C(F)(F)F` gave a half-life in series [19] of 11.8 h. The Activity entry in the series on THP-1 [20] is on record as “Non-Toxic”. In the series with THP-1 [23], the viability at 10 µM stood at 90%. For the same compound, the solubility entry in series [22] is listed as “Soluble”.
